Source: the NIST ThermoML archive (doi:10.1016/j.fluid.2008.04.021)

Assay: excess molar enthalpy (molar enthalpy of mixing); xn = mol fraction of the nth substance listed
Conditions: Liquid

CCCCOCC [butyl ethyl ether] + FC(F)(F)C(F)(F)C(F)(F)C(F)(F)C(F)(F)C(F)(F)F
298.15 K
Conditions | excess molar enthalpy [kcal/mol]
x2 = 0 | 0
x2 = 0.05 | 0.146
x2 = 0.1 | 0.259
x2 = 0.15 | 0.345
x2 = 0.2 | 0.41
x2 = 0.25 | 0.459
x2 = 0.3 | 0.494
x2 = 0.35 | 0.519
x2 = 0.4 | 0.536
x2 = 0.45 | 0.546
x2 = 0.5 | 0.549
x2 = 0.55 | 0.546
x2 = 0.6 | 0.535
x2 = 0.65 | 0.517
x2 = 0.7 | 0.489
x2 = 0.75 | 0.449
x2 = 0.8 | 0.396
x2 = 0.85 | 0.327
x2 = 0.9 | 0.24
x2 = 0.95 | 0.132

CCCCOC [butyl methyl ether] + FC(F)(F)C(F)(F)C(F)(F)C(F)(F)C(F)(F)C(F)(F)F
298.15 K
Conditions | excess molar enthalpy [kcal/mol]
x2 = 0 | 0
x2 = 0.05 | 0.148
x2 = 0.1 | 0.26
x2 = 0.15 | 0.344
x2 = 0.2 | 0.406
x2 = 0.25 | 0.452
x2 = 0.3 | 0.486
x2 = 0.35 | 0.51
x2 = 0.4 | 0.526
x2 = 0.45 | 0.535
x2 = 0.5 | 0.539
x2 = 0.55 | 0.535
x2 = 0.6 | 0.524
x2 = 0.65 | 0.505
x2 = 0.7 | 0.475
x2 = 0.75 | 0.434
x2 = 0.8 | 0.379
x2 = 0.85 | 0.31
x2 = 0.9 | 0.224
x2 = 0.95 | 0.121

CCOCC [diethyl ether] + FC(F)(F)C(F)(F)C(F)(F)C(F)(F)C(F)(F)C(F)(F)F
293.15 K
Conditions | excess molar enthalpy [kcal/mol]
x2 = 0 | 0
x2 = 0.05 | 0.148
x2 = 0.1 | 0.26
x2 = 0.15 | 0.344
x2 = 0.2 | 0.408
x2 = 0.25 | 0.455
x2 = 0.3 | 0.491
x2 = 0.35 | 0.517
x2 = 0.4 | 0.535
x2 = 0.45 | 0.547
x2 = 0.5 | 0.551
x2 = 0.55 | 0.546
x2 = 0.6 | 0.533
x2 = 0.65 | 0.51
x2 = 0.7 | 0.475
x2 = 0.75 | 0.427
x2 = 0.8 | 0.366
x2 = 0.85 | 0.292
x2 = 0.9 | 0.205
x2 = 0.95 | 0.107

CCCOCCC [dipropyl ether] + FC(F)(F)C(F)(F)C(F)(F)C(F)(F)C(F)(F)C(F)(F)F
298.15 K
Conditions | excess molar enthalpy [kcal/mol]
x2 = 0 | 0
x2 = 0.05 | 0.137
x2 = 0.1 | 0.249
x2 = 0.15 | 0.34
x2 = 0.2 | 0.413
x2 = 0.25 | 0.47
x2 = 0.3 | 0.514
x2 = 0.35 | 0.547
x2 = 0.4 | 0.569
x2 = 0.45 | 0.582
x2 = 0.5 | 0.586
x2 = 0.55 | 0.582
x2 = 0.6 | 0.569
x2 = 0.65 | 0.546
x2 = 0.7 | 0.514
x2 = 0.75 | 0.469
x2 = 0.8 | 0.411
x2 = 0.85 | 0.338
x2 = 0.9 | 0.247
x2 = 0.95 | 0.135

FC(F)(F)C(F)(F)C(F)(F)C(F)(F)C(F)(F)C(F)(F)F [perfluorohexane] + CCCCOC
Conditions | excess molar enthalpy [kcal/mol]
298.15 K, x1 = 1 | 0

FC(F)(F)C(F)(F)C(F)(F)C(F)(F)C(F)(F)C(F)(F)F [perfluorohexane] + CCCCOCC
Conditions | excess molar enthalpy [kcal/mol]
298.15 K, x1 = 1 | 0

FC(F)(F)C(F)(F)C(F)(F)C(F)(F)C(F)(F)C(F)(F)F [perfluorohexane] + CCCCOCCCC
298.15 K
Conditions | excess molar enthalpy [kcal/mol]
x1 = 0.05 | 0.144
x1 = 0.1 | 0.255
x1 = 0.15 | 0.338
x1 = 0.2 | 0.399
x1 = 0.25 | 0.443
x1 = 0.3 | 0.473
x1 = 0.35 | 0.494
x1 = 0.4 | 0.506
x1 = 0.45 | 0.513
x1 = 0.5 | 0.515
x1 = 0.55 | 0.513
x1 = 0.6 | 0.506
x1 = 0.65 | 0.494
x1 = 0.7 | 0.474
x1 = 0.75 | 0.444
x1 = 0.8 | 0.401
x1 = 0.85 | 0.34
x1 = 0.9 | 0.257
x1 = 0.95 | 0.146
x1 = 1 | 0

FC(F)(F)C(F)(F)C(F)(F)C(F)(F)C(F)(F)C(F)(F)F [perfluorohexane] + CCCOCCC
Conditions | excess molar enthalpy [kcal/mol]
298.15 K, x1 = 1 | 0

FC(F)(F)C(F)(F)C(F)(F)C(F)(F)C(F)(F)C(F)(F)F [perfluorohexane] + CCOCC
Conditions | excess molar enthalpy [kcal/mol]
293.15 K, x1 = 1 | 0
